Here are results for one compound from patent US20250295657A1, “Methods and Compositions for Treatment of Inflammation and Inflammatory Conditions” (University of Pittsburgh - Of the Commonwealth System of …, priority 2022, published 2025).

In this experiment the test system is pseudotyped SARS-CoV-2 (D614G Spike). Type of experiment: cell-based.

Molecules are shown by their SMILES.

As to `O=C(OCc1cc(=O)oc2cc(O)c(O)cc12)c1nn(-c2ccccc2)c(=O)c2ccccc12` [compound 958], the “pseudotyped SARS-CoV-2 infection (D614G Spike)” value is listed as “prevent pseudotyped SARS-CoV-2 infection”.
